# Legend:
# [1] = test system: HeLa cells not expressing human GPR30; conditions: pAKKO-1.11H-transfected control HeLa cells; tacrine 100 μM; 4 hours
# Experimental: (§1) Separately, a reporter plasmid of pSRE-Luc (Invitrogen) ligated with a luciferase gene as a reporter at a downstream position of a serum response element (SRE), and expression vector plasmids for human GαoA, human Gβ1 and human Gγ2, which are each a kind of G proteins, were prepared in substantially the same manner. HeLa cells were used as host cells for transfecting the G protein-coupled receptor protein expression plasmid pAK-hGPR30 and the reporter plasmids. The cells were planted on a 384-well assay plate (COSTAR 3704) at a ratio of 4000 cells/well in a culture volume of 25 μl, and incubated overnight. As the medium, DMEM (Invitrogen) supplemented with 10% fetal bovine serum and 1% MEM non-essential amino acids solution (DMEM/NEAA) was used. Each plasmid was diluted to a concentration of 240 ng/μl. Plasmids were added to 250 μl of Opti-MEM-I (Invitrogen) at a ratio of 1 μl of pAK-hGPR30, 9 μl of the reporter plasmid, and 1 μl of each of the G protein expression plasmids for GαoA, Gβ1 and Gγ2. […] After the cells were lysed and thoroughly mixed with the substrate, the chemiluminescence level corresponding to the expression induction level of the reporter gene in each well was measured on a plate reader (EnVision™, Perkin Elmer).
# human GPR30 [2] = biological target: T1, human GPR30 (Homo sapiens, UniProt Q99527, P21A/Q20H); conditions: human GPR30 expression CHO cells; tacrine 0.67-67 μM; Fluo 3-AM
# Experimental: 200 μl of each type of cells was planted in each well of a 96-well plate for FLIPR (Black plate clear bottom, Coster) using an 8-channel pipette (3.0×10^4 cells/200 μl/well) and cultured in a 5% CO2 incubator at 37° C. overnight (hereinafter, referred to as the “cell plate”) before use. 20 ml of H/HBSS, 200 μl of 250 mM Probenecid, and 200 μl of fetal bovine serum (FBS) were mixed. 2 vials (50 μg) of Fluo 3-AM (Dojindo Laboratories) were lysed in […] of dimethylsulfoxide and 40 μl of 20% Pluronic acid (Molecular Probes), and the resultant substance was added to H/HBSS-Probenecid-FBS and mixed. Then, the resultant mixture was divided into units of 100 μl and put to each well of the cell plate deprived of the culture fluid using an 8-channel pipette, and incubated in a 5% CO2 incubator at 37° C. for 1 hour (colorant loading). 8 μl of a tacrine solution (Aldrich Chemical Company) of various concentrations was added to 259 μl of H/HBSS containing 2.5 mM Probenecid, 0.1% CHAPS and 0.1% BSA, and diluted. […] The cell plate and the sample plate were set in an FLIPR (501 of sample was transferred from the sample plate to the cell plate by the FLIPR), and a change of the fluorescent intensity was measured over-time. Thus, the intracellular calcium ion concentration increase activity was measured.
# rat GPR30 = rat GPR30 (Rattus norvegicus, UniProt O08878, S320N); conditions: rat GPR30 expression CHO cells; tacrine 0.67-67 μM; Fluo 3-AM
# Experimental: The plasmid pAK-rGPR30 was transduced by electroporation into CHO/dhfr^− cells (American Type Culture Collection) in the method described in REFERENCE EXAMPLE 1, and transformed CHO cells expressing rat GPR30 (hereinafter, referred to simply as “rat GPR30 cells”) at a high ratio were selected.
# 200 μl of each type of cells was planted in each well of a 96-well plate for FLIPR (Black plate clear bottom, Coster) using an 8-channel pipette (3.0×10^4 cells/200 μl/well) and cultured in a 5% CO2 incubator at 37° C. overnight (hereinafter, referred to as the “cell plate”) before use. 20 ml of H/HBSS, 200 μl of 250 mM Probenecid, and 200 μl of fetal bovine serum (FBS) were mixed. 2 vials (50 μg) of Fluo 3-AM (Dojindo Laboratories) were lysed in […] of dimethylsulfoxide and 40 μl of 20% Pluronic acid (Molecular Probes), and the resultant substance was added to H/HBSS-Probenecid-FBS and mixed. […] The cell plate and the sample plate were set in an FLIPR (501 of sample was transferred from the sample plate to the cell plate by the FLIPR), and a change of the fluorescent intensity was measured over-time. Thus, the intracellular calcium ion concentration increase activity was measured.
# human GPR30 [3] = biological target: T1, human GPR30; conditions: GPR30 expression HeLa cells; tacrine 100 μM; 4 hours
# Experimental: as §1
# T1 sequence (Q99527 whole entry Q20H/P21A): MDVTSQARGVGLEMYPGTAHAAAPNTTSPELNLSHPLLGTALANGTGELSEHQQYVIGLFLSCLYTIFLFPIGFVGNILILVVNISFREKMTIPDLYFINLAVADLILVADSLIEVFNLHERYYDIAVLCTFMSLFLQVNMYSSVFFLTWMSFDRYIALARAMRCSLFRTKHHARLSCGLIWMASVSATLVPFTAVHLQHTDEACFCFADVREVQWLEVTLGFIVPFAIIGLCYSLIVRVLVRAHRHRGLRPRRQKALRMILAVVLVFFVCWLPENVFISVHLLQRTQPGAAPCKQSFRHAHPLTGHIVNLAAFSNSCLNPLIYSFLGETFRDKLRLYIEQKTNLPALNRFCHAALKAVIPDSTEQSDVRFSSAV
# Sequence of rat GPR30 (O08878 whole entry S320N): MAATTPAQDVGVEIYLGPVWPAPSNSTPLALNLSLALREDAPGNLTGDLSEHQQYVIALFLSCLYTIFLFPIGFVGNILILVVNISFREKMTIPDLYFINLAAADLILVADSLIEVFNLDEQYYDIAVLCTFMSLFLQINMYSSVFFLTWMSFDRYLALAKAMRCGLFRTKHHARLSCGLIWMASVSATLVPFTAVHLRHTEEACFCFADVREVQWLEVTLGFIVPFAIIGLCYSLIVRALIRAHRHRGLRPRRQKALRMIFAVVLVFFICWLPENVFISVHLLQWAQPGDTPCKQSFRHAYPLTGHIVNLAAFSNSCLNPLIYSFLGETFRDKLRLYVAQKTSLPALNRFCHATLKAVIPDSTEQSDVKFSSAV
smiles,measurement,setting,value
"Nc1c2c(nc3ccccc13)CCCC2 [tacrine, 1,2,3,4-tetrahydro-9-acridinamine]",luciferase activity (pSRE-Luc reporter),[1],no significant activity increase
same,"intracellular calcium ion concentration (change of fluorescent intensity, FLIPR)",human GPR30 [2],increased in a concentration-depending manner
same,"intracellular calcium ion concentration (change of fluorescent intensity, FLIPR)",rat GPR30,increased in a concentration-depending manner
same,luciferase activity (pSRE-Luc reporter),human GPR30 [3],significant increase

# Reference: patent US8057990B2, “Screening method” (Takeda Pharmaceutical Company Limited, priority 2005, dated 2011)
